The record followed here is the supplement of paper PMC11061612.

The test system of experiment [1] is NB12 (Neuroblastoma). The experiment in a line: Bliss excess, mean over the matrix (fraction); higher = more synergy. In a few lines:
(§1)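 Cell lines in DMEM/F12 or RPMI with 10% FBS were plated in 1536-well plates, held 24 hours at 37°C, 5% CO2, then given two-drug dose matrices for 72 hours (DMSO typically 0.2%). Viability was read by CellTiter-Glo 2.0 luminescence and scaled as inhibition from 0 (vehicle wells) to 1 (blank wells). Combination Emax is the second-highest inhibition in the matrix; Bliss excess is observed combination effect minus expected EA + EB − EA·EB, EA and EB being single-agent effects.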

Experiment [2] concerns SK-MEL-2 (Melanoma). The experiment is described as above. The essentials: as §1
Experiment [3] relates to CAL-62 (Thyroid Gland Carcinoma). The experiment in a line: combination Emax (second highest fraction inhibited in the dose matrix, 72 h); higher = more inhibition; extreme values may be limits of the assay. The essentials: as §1
Experiment [4] has as its system OAW-42 (Ovarian Carcinoma). The description is as above. In a few lines:
as §1

The subject of experiment [5] is NB12 (Neuroblastoma). The description is as above. The essentials: as §1
Experiment [6] concerns LB996-RCC (Kidney Carcinoma). The experiment is described as above. The essentials:
as §1

The next experiment relates to WM793B (Melanoma). The description is as above. In a few lines: as §1
Experiment [7] deals with NCI-H23 (Lung Adenocarcinoma). The experiment is described as above. The essentials:
as §1

For experiment [8], the system named is SK-MEL-2 (Melanoma). Described as above. In a few lines:
as §1

Experiment [9] relates to LXF-289 (Lung Adenocarcinoma). The description is as above. The essentials:
as §1
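Throughout, for Bliss excess, mean over the matrix: after 72 h of two-drug dosing.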

For `NC1(C(=O)N[C@@H](CCO)c2ccc(Cl)cc2)CCN(c2ncnc3[nH]ccc23)CC1` [Capivasertib] + C[C@@H]1COCCN1C2=NC(=NC(=C2)C3(CC3)[S@](=N)(=O)C)C4=C5C=CNC5=NC=C4 [AZD6738] (first compound max 10 µM, 7x7, partner max 10 µM), the Bliss excess in the experiment on NB12 (Neuroblastoma) [1] is -0.0449; in the experiment on SK-MEL-2 (Melanoma) [2] it was -0.0335. Also, the “combination Emax” value in [3] amounted to 0.784; in experiment [4] it was 0.644; in the experiment with NB12 (Neuroblastoma) [5], 0.738; in experiment [6] it was 0.823; in the experiment on WM793B (Melanoma), 0.842; in experiment [7], 0.87. For the same molecule, the “combination Emax” value with SK-MEL-2 (Melanoma) [8] is 0.152; in [9], 0.778.
Take `COc1nnc2ccc(N3CCC(c4ccc(OCCN5CCN(C)C(=O)[C@H]5C)cc4)CC3)nn12` [AZD5153] + Cn1cnc2c(F)c(Nc3ccc(Br)cc3Cl)c(C(=O)NOCCO)cc21 [Selumetinib] (first compound max 1 µM, 7x7, partner max 10 µM): the Bliss excess was -0.0428 in the experiment with NB12 (Neuroblastoma) [1] and -0.0349 with SK-MEL-2 (Melanoma) [2]. Also, the “combination Emax” value was found to be 0.844 in experiment [3]; 0.426 in [4]; 0.799 in the experiment on NB12 (Neuroblastoma) [5]; 0.482 in experiment [6]; 0.786 in the experiment with WM793B (Melanoma); 0.852 in [7]. For the same molecule, the “combination Emax” value with SK-MEL-2 (Melanoma) [8] was determined as 0.926; in [9], 0.646.
`C=CCn1c(=O)c2cnc(Nc3ccc(N4CCN(C)CC4)cc3)nc2n1-c1cccc(C(C)(C)O)n1` [AZD1775] + C1CN(CCC1(C(=O)N[C@@H](CCO)C2=CC=C(C=C2)Cl)N)C3=NC=NC4=C3C=CN4 [Capivasertib] (first compound max 3 µM, partner max 3 µM): the Bliss excess with NB12 (Neuroblastoma) [1] was -0.0491; in the experiment with SK-MEL-2 (Melanoma) [2], -0.0472. In addition, the “combination Emax” value came to 0.868 in experiment [3]; 0.467 in [4]; 0.746 with NB12 (Neuroblastoma) [5]; 0.783 in experiment [6]; 0.606 with WM793B (Melanoma); 0.908 in experiment [7]. For the same molecule, the “combination Emax” value with SK-MEL-2 (Melanoma) [8] is 0.637; in experiment [9], 0.836.
`CC(=O)c1c(C)c2cnc(Nc3ccc(N4CCNCC4)cn3)nc2n(C2CCCC2)c1=O` [Palbociclib] + Cc1c2c(nn1C)CSCc1cc(n(C)n1)CSc1cc(c3ccccc3c1)OCCCc1c(C(=O)O)n(C)c3c-2c(Cl)ccc13 [AZD5991] (first compound max 10 µM, 7x7, partner max 1 µM): the Bliss excess was 0.0159 in the experiment on NB12 (Neuroblastoma) [1] and -0.045 in the experiment with SK-MEL-2 (Melanoma) [2]. The “combination Emax” value in [3] turned out to be 0.308; in experiment [4] it was 0.223; with NB12 (Neuroblastoma) [5] it was 0.357; in experiment [6], 0.397; in the experiment on WM793B (Melanoma) it was 0.432; in [7], 0.934. Moreover, the “combination Emax” value in the experiment on SK-MEL-2 (Melanoma) [8] amounted to 0.905; in experiment [9], 0.6.
Turning to `C[C@@H](c1ccc2nccn2c1)n1nnc2ncc(-c3cnn(C)c3)nc21` [Savolitinib] + CC1(C)CCC(CN2CCN(c3ccc(C(=O)NS(=O)(=O)c4ccc(NCC5CCOCC5)c([N+](=O)[O-])c4)c(Oc4cnc5[nH]ccc5c4)c3)CC2)=C(c2ccc(Cl)cc2)C1 [Venetoclax] (first compound max 1 µM, 7x7, partner max 1 µM), the Bliss excess in the experiment on NB12 (Neuroblastoma) [1] is -0.0062; in the experiment on SK-MEL-2 (Melanoma) [2], -0.0295. In addition, the “combination Emax” value in experiment [3] worked out at 0.142; in [4] it was 0.188; in the experiment with NB12 (Neuroblastoma) [5], 0.641; in [6] it was 0.0725; with WM793B (Melanoma), 0.137; in experiment [7] it was 0.205. Also, the figures for the “combination Emax” value (with SK-MEL-2 (Melanoma) [8]; in experiment [9]) were 0.14 and 0.16, respectively.
As to `CC(=O)c1c(C)c2cnc(Nc3ccc(N4CCNCC4)cn3)nc2n(C2CCCC2)c1=O` [Palbociclib] + CC1(C)CCC(CN2CCN(c3ccc(C(=O)NS(=O)(=O)c4ccc(NCC5CCOCC5)c([N+](=O)[O-])c4)c(Oc4cnc5[nH]ccc5c4)c3)CC2)=C(c2ccc(Cl)cc2)C1 [Venetoclax] (first compound max 10 µM, 7x7, partner max 1 µM), the Bliss excess in the experiment on NB12 (Neuroblastoma) [1] is 0.0237; in the experiment with SK-MEL-2 (Melanoma) [2] it was -0.0492. The “combination Emax” value in experiment [3] came to 0.151; in experiment [4], 0.105; with NB12 (Neuroblastoma) [5] it was 0.614; in experiment [6], 0.318; with WM793B (Melanoma), 0.327; in [7], 0.168. Besides, the “combination Emax” value with SK-MEL-2 (Melanoma) [8] came to 0.11; in [9], 0.225.
Regarding `CS(=O)(=O)CCNCc1ccc(-c2ccc3ncnc(Nc4ccc(OCc5cccc(F)c5)c(Cl)c4)c3c2)o1` [Lapatinib] + C[C@@H](Oc1cc(-c2cnn(C3CCNCC3)c2)cnc1N)c1c(Cl)ccc(F)c1Cl [Crizotinib] (first compound max 10 µM, 7x7, partner max 10 µM), the Bliss excess in the experiment with NB12 (Neuroblastoma) [1] is -0.0622; in the experiment with SK-MEL-2 (Melanoma) [2], -0.0232. For the same molecule, the “combination Emax” value in experiment [3] is 0.776; in [4], 0.732; with NB12 (Neuroblastoma) [5], 0.843; in experiment [6], 0.98; in the experiment on WM793B (Melanoma) it was 0.973; in experiment [7], 0.645. The “combination Emax” value in the experiment with SK-MEL-2 (Melanoma) [8] was 0.62; in experiment [9] it was 1.
Consider `Cn1cnc2c(F)c(Nc3ccc(Br)cc3Cl)c(C(=O)NOCCO)cc21` [Selumetinib] + CCN(CCO)CCCOc1ccc2c(Nc3cc(CC(=O)Nc4cccc(F)c4)[nH]n3)ncnc2c1 [AZD2811] (first compound max 10 µM, 7x7, partner max 1 µM), for which the Bliss excess with NB12 (Neuroblastoma) [1] is -0.0881; with SK-MEL-2 (Melanoma) [2], -0.0538. Also, the “combination Emax” value in experiment [3] amounted to 0.291; in experiment [4], 0.194; in the experiment on NB12 (Neuroblastoma) [5], 0.607; in experiment [6], 0.343; with WM793B (Melanoma) it was 0.528; in experiment [7], 0.484. The “combination Emax” value in the experiment with SK-MEL-2 (Melanoma) [8] amounted to 0.722; in experiment [9], 0.514.
Consider `NC1(C(=O)N[C@@H](CCO)c2ccc(Cl)cc2)CCN(c2ncnc3[nH]ccc23)CC1` [Capivasertib] + CC(C)n1c(=O)n(C)c2cnc3cc(F)c(-c4ccc(OCCCN5CCCCC5)nc4)cc3c21 [AZD1390] (first compound max 10 µM, 7x7, partner max 0.3 µM), for which the Bliss excess in the experiment with NB12 (Neuroblastoma) [1] was 0.0009; in the experiment on SK-MEL-2 (Melanoma) [2], -0.0125. For the same molecule, the “combination Emax” value in experiment [3] came to 0.178; in experiment [4], 0.439; in the experiment with NB12 (Neuroblastoma) [5], 0.504; in [6], 0.645; in the experiment on WM793B (Melanoma) it was 0.438; in experiment [7], 0.297. Moreover, the “combination Emax” value amounted to 0.176 with SK-MEL-2 (Melanoma) [8] and 0.396 in experiment [9].
